Test results as given in US10696692B2, “Amido-benzyl sulfone and sulfoxide derivates” (Forma TM, LLC, priority 2012, dated 2020).
Like-named read-outs stand apart in the source and are kept apart here.

Tests used:
[1] = biological target: NAMPT (Homo sapiens (Human), UniProt P43490); test: Assay 1: Biochemical Inhibition Assay (NAMPT enzymatic reaction, NMN quantified by mass spectrometry); conditions: read-out: Biochemical (IC50);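 note: recombinant His-tagged human NAMPT preincubated with compound 15 min, then reacted 30 min at rt with 1 µM NAM, 100 µM PRPP, 2.5 mM ATP, NMN product read by RapidFire MS, normalized to L-Cystathionine internal standard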
Chain of NAMPT (P43490 whole entry): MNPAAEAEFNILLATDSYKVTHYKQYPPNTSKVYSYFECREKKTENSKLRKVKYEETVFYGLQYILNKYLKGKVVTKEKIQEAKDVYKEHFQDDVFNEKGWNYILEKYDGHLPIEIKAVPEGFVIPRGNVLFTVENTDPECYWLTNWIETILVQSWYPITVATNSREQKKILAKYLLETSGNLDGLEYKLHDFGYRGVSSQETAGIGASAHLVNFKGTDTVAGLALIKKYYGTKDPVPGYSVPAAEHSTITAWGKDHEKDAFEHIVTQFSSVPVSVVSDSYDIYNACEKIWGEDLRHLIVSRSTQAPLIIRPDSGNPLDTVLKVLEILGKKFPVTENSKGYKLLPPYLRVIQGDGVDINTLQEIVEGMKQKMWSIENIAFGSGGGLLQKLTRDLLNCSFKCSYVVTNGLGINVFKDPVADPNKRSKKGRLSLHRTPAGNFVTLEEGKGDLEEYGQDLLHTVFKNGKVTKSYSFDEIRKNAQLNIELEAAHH

[2] = system: A2780 cells; test: Assay 2: In-Vitro Cell Proliferation Assay (A2780 cells, SRB readout, 72 hours); type: cell-based; conditions: A2780 cells, 72 hours, SRB, read-out: Cell Proliferation (IC50);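 note: viable cells counted via sulforhodamine B staining, absorbance at 570 nm, after 72 h exposure at 37 °C, DMSO 0.1% as control, media-only background subtracted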

SMILES | IC50 [1] | IC50 [2] | IC50 ([2]; Homo sapiens, A2780, 72 h)
O=C(NCc1ccc(S(=O)(=O)N2CCCCC2)cc1)c1cn2[nH]ccc2n1 [Example 1, 5H-Imidazo[1,2-b]pyrazole-2-carboxylic acid 4-(piperidine-1-sulfonyl)-benzylamide] | 8100 nM |  | 19100 nM
O=C(NCc1ccc(S(=O)(=O)N2CC3CCC(C2)O3)cc1)c1cc2cnccc2[nH]1 [Example 2, 1H-Pyrrolo[3,2-c]pyridine-2-carboxylic acid 4-(8-oxa-3-aza-bicyclo[3.2.1]octane-3-sulfonyl)-benzylamide] | 28.1 nM |  | 13.8 nM
O=C(NCc1ccc(S(=O)(=O)N2CC3CCC(C2)O3)cc1)c1ccc2nccn2c1 [Example 4, Imidazo[1,2-a]pyridine-6-carboxylic acid 4-(8-oxa-3-aza-bicyclo[3.2.1]octane-3-sulfonyl]-benzylamide] | 72 nM |  | 7.4 nM
O=C(NCc1ccc(S(=O)(=O)N2CCOCC2)cc1)c1cnc2[nH]ncc2c1 [Example 9, 1H-Pyrazolo[3,4-b]pyridine-5-carboxylic acid 4-(morpholine-4-sulfonyl)-benzylamide] | 105 nM |  | 278 nM
O=C(NCc1ccc(S(=O)(=O)N2CCOCC2)cc1)c1ccc2nccn2c1 [Example 10, Imidazo[1,2-a]pyridine-6-carboxylic acid 4-(morpholine-4-sulfonyl)-benzylamide] | 25.1 nM |  | 14.8 nM
N#CC1CCN(S(=O)(=O)c2ccc(CNC(=O)c3cc4ccncc4o3)cc2)CC1 [Example 12, Furo[2,3-c]pyridine-2-carboxylic acid 4-(4-cyano-piperidine-1-sulfonyl)-benzylamide] | 26.2 nM |  | 186 nM
CN1CCN(S(=O)(=O)c2ccc(CNC(=O)c3ccc4nccn4c3)cc2)CC1 [Example 17, Imidazo[1,2-a]pyridine-6-carboxylic acid 4-(4-methyl-piperazine-1-sulfonyl)-benzylamide] | 101 nM |  | 53.4 nM
O=C(NCc1ccc(S(=O)(=O)N2CCN(CC(F)(F)F)CC2)cc1)c1ccc2nccn2c1 [Example 25, Imidazo[1,2-a]pyridine-6-carboxylic acid 4-[4-(2,2,2-trifluoro-ethyl)-piperazine-1-sulfonyl]-benzylamide] | 24.2 nM |  | 10.5 nM
O=C(NCc1ccc(S(=O)(=O)N2CC3CCC(C2)O3)cc1)c1cnc2[nH]ncc2c1 [Example 27, 1H-Pyrazolo[3,4-b]pyridine-5-carboxylic acid 4-(8-oxa-3-aza-bicyclo[3.2.1]octane-3-sulfonyl)-benzylamide] | 142 nM |  | 132 nM
O=C(NCc1ccc(S(=O)(=O)N2CCC(O)CC2)cc1)c1cnc2[nH]ncc2c1 [Example 30, 1H-Pyrazolo[3,4-b]pyridine-5-carboxylic acid 4-(4-hydroxy-piperidine-1-sulfonyl)-benzylamide] | 178 nM |  | 205 nM
O=C(NCc1ccc(S(=O)(=O)N2CCC(O)CC2)cc1)c1cc2cnccc2[nH]1 [Example 31, 1H-Pyrrolo[3,2-c]pyridine-2-carboxylic acid 4-(4-hydroxy-piperidine-1-sulfonyl)-benzylamide] | 55 nM |  | 48.2 nM
O=C(NCc1ccc(S(=O)(=O)N2CCC(NCC(F)F)CC2)cc1)c1cnc2[nH]ncc2c1 [Example 37, 1H-Pyrazolo[3,4-b]pyridine-5-carboxylic acid 4-[4-(2,2-difluoro-ethylamino)-piperidine-1-sulfonyl]-benzylamide] | 44.1 nM |  | 13.9 nM
O=C(NCc1ccc(S(=O)(=O)N2CCC(O)CC2)cc1)c1cc2ccncc2o1 [Example 38, Furo[2,3-c]pyridine-2-carboxylic acid 4-(4-hydroxy-piperidine-1-sulfonyl)-benzylamide] | 26.5 nM |  | 62.1 nM
COCCNC1CCN(S(=O)(=O)c2ccc(CNC(=O)c3cnc4[nH]ncc4c3)cc2)CC1 [Example 39, 1H-Pyrazolo[3,4-b]pyridine-5-carboxylic acid 4-[4-(2-methoxy-ethylamino)-piperidine-1-sulfonyl]-benzylamide] | 83.5 nM |  | 94.7 nM
N[C@H]1C[C@H]2CC[C@@H](C1)N2S(=O)(=O)c1ccc(CNC(=O)c2cc3ccncc3s2)cc1 [Example 44, Thieno[2,3-c]pyridine-2-carboxylic acid 4-((1R,3R,5S)-3-amino-8-aza-bicyclo[3.2.1]octane-8-sulfonyl)-benzylamide] | 5.8 nM |  | 23.2 nM
C[C@@H]1CN(S(=O)(=O)c2ccc(CNC(=O)c3cc4ccncc4s3)cc2)C[C@H](C)N1 [Example 46, Thieno[2,3-c]pyridine-2-carboxylic acid 4-((3R,5S)-3,5-dimethyl-piperazine-1-sulfonyl)-benzylamide] | 43.5 nM |  | 4.4 nM
O=C(NCc1ccc(S(=O)(=O)N2CCCCC2)cc1)c1ccn2nccc2c1 [Example 48, Pyrazolo[1,5-a]pyridine-5-carboxylic acid 4-(piperidine-1-sulfonyl)-benzylamide] | 46.1 nM |  | 2000 nM
O=C(NCc1ccc(S(=O)(=O)N2CCC[C@@H](O)C2)cc1)c1cc2cnccc2[nH]1 [Example 50, 1H-Pyrrolo[3,2-c]pyridine-2-carboxylic acid 4-((R)-3-hydroxy-piperidine-1-sulfonyl)-benzylamide] | 36.2 nM |  | 23.9 nM

Results, then the compound that gave them:

IC50 [1] | IC50 [2] | IC50 ([2]; Homo sapiens, A2780, 72 h) | SMILES
5 nM | 2.7 nM |  | O=C(NCc1ccc(S(=O)(=O)N2CC3CCC(F)(F)C3C2)cc1)c1ccc2nccn2c1 (single isomer, unassigned) [Example 74, cis-Imidazo[1,2-a]pyridine-6-carboxylic acid 4-(4,4-difluoro-hexahydro-cyclopenta[c]pyrrole-2-sulfonyl)-benzylamide]
12.6 nM |  | 6.4 nM | O=C(NCc1ccc(S(=O)(=O)N2CC3CCC(C2)O3)cc1)c1cc2ccncc2s1 [Example 3, Thieno[2,3-c]pyridine-2-carboxylic acid 4-(8-oxa-3-aza-bicyclo[3.2.1]octane-3-sulfonyl)-benzylamide]
9.4 nM |  | 29.2 nM | O=C(NCc1ccc(S(=O)(=O)N2CCCCC2)cc1)c1cc2ccncc2o1 [Example 5, Furo[2,3-c]pyridine-2-carboxylic acid 4-(piperidine-1-sulfonyl)-benzylamide]
3.5 nM |  | 129 nM | O=C(NCc1ccc(S(=O)(=O)N2CCCCC2)cc1)c1cnc2nccn2c1 [Example 6, Imidazo[1,2-a]pyrimidine-6-carboxylic acid 4-(piperidine-1-sulfonyl)-benzylamide]
10.9 nM |  | 13.3 nM | COC1CCN(S(=O)(=O)c2ccc(CNC(=O)c3cc4ccncc4o3)cc2)CC1 [Example 7, Furo[2,3-c]pyridine-2-carboxylic acid 4-(4-methoxy-piperidine-1-sulfonyl)-benzylamide]
12.6 nM |  | 33.8 nM | N#CCC1CCN(S(=O)(=O)c2ccc(CNC(=O)c3cc4ccncc4o3)cc2)CC1 [Example 13]
6.8 nM |  | 624 nM | O=C(NCc1ccc(S(=O)(=O)N2CCOCC2)cc1)c1cnc2nccn2c1 [Example 15, Imidazo[1,2-a]pyrimidine-6-carboxylic acid 4-(morpholine-4-sulfonyl)-benzylamide]
22 nM |  | 163 nM | O=C(NCc1ccc(S(=O)(=O)N2CCCCC2)cc1)c1ccc2nccn2n1 [Example 16, Imidazo[1,2-b]pyridazine-6-carboxylic acid 4-(piperidine-1-sulfonyl)-benzylamide]
8.7 nM | 185 nM |  | O=C(NCc1ccc(S(=O)(=O)C2CCOCC2)cc1)c1cnc2nccn2c1 [Example 21, Imidazo[1,2-a]pyrimidine-6-carboxylic acid 4-(tetrahydro-pyran-4-sulfonyl)-benzylamide]
4.6 nM |  | 135 nM | O=C(NCc1ccc(S(=O)(=O)N2CC3CCC(C2)O3)cc1)c1cnc2nccn2c1 [Example 26, Imidazo[1,2-a]pyrimidine-6-carboxylic acid 4-(8-oxa-3-aza-bicyclo[3.2.1]octane-3-sulfonyl)-benzylamide]
23.5 nM |  | 27.6 nM | O=C(NCc1ccc(S(=O)(=O)N2CCC(O)CC2)cc1)c1ccc2nccn2c1 [Example 28, Imidazo[1,2-a]pyridine-6-carboxylic acid 4-(4-hydroxy-piperidine-1-sulfonyl)-benzylamide]
7.5 nM |  | 545 nM | O=C(NCc1ccc(S(=O)(=O)N2CCC(O)CC2)cc1)c1cnc2nccn2c1 [Example 29, Imidazo[1,2-a]pyrimidine-6-carboxylic acid 4-(4-hydroxy-piperidine-1-sulfonyl)-benzylamide]
11.3 nM |  | 46.3 nM | NC1CCN(S(=O)(=O)c2ccc(CNC(=O)c3cc4ccncc4s3)cc2)CC1 [Example 36, Thieno[2,3-c]pyridine-2-carboxylic acid 4-(4-amino-piperidine-1-sulfonyl)-benzylamide]
17.1 nM |  | 6.9 nM | O=C(NCc1ccc(S(=O)(=O)N2CCN(C3CCCCC3)CC2)cc1)c1ccc2nccn2c1 [Example 40, Imidazo[1,2-a]pyridine-6-carboxylic acid 4-(4-cyclohexyl-piperazine-1-sulfonyl)-benzylamide]
21.6 nM |  | 7.2 nM | CC(C)CN1CCN(S(=O)(=O)c2ccc(CNC(=O)c3ccc4nccn4c3)cc2)CC1 [Example 43, Imidazo[1,2-a]pyridine-6-carboxylic acid 4-(4-isobutyl-piperazine-1-sulfonyl)-benzylamide]
17.2 nM |  | 1000 nM | O=C(NCc1ccc(S(=O)(=O)N2CCCCC2)cc1)c1ccc2ncnn2c1 [Example 45, [1,2,4]Triazolo[1,5-a]pyridine-6-carboxylic acid 4-(piperidine-1-sulfonyl)-benzylamide]
22.2 nM | 39.7 nM |  | O=C(NCc1ccc(S(=O)(=O)N2CCC[C@H](O)C2)cc1)c1cc2ccncc2o1 [Example 51, Furo[2,3-c]pyridine-2-carboxylic acid 4-((S)-3-hydroxy-piperidine-1-sulfonyl)-benzylamide]
